Measured values reported in paper PMC2678021 (Cancer research, 2009).

Legend:
Src F278H = Src F278H (Gallus gallus, UniProt P00523, F278H); assay: In vitro kinase assay, c-Src F278H kinase domain; format: biochemical; settings: read-out: IC50 Src F278H; Table 2; kinase domain construct
Src F382V = Src F382V (Gallus gallus, UniProt P00523, Y382V); assay: In vitro kinase assay, c-Src 382V kinase domain; format: biochemical; settings: read-out: IC50 Src F382V; Table 2; kinase domain construct
Src T338I = Src T338I (Gallus gallus, UniProt P00523, T338I); assay: In vitro kinase assay, c-Src T338I kinase domain; format: biochemical; settings: read-out: IC50 Src T338I; Table 2; kinase domain construct
Hck = Hck (Homo sapiens, UniProt P08631); assay: In vitro kinase assay, Hck; format: biochemical; settings: read-out: IC50 Hck, Table 1, triplicate or quadruplicate
parental Ba/F3 cells = assay: Growth of parental Ba/F3 control cells; format: cell-based; settings: 48 hours, media containing IL-3; up to highest concentration tested (5 μM)
Src E280V = Src E280V (Gallus gallus, UniProt P00523, E280V); assay: In vitro kinase assay, c-Src E280V kinase domain; format: biochemical; settings: read-out: IC50 Src E280V; Table 2; kinase domain construct
[1] = system: BCR-ABL-induced phosphorylation of CrkL; assay: BCR-ABL-induced phosphorylation of CrkL in Ba/F3 cells; format: cell-based; settings: Ba/F3 cells expressing native and mutant isoforms of BCR-ABL; data not shown

Hck, sequence (P08631 whole entry, species assumed): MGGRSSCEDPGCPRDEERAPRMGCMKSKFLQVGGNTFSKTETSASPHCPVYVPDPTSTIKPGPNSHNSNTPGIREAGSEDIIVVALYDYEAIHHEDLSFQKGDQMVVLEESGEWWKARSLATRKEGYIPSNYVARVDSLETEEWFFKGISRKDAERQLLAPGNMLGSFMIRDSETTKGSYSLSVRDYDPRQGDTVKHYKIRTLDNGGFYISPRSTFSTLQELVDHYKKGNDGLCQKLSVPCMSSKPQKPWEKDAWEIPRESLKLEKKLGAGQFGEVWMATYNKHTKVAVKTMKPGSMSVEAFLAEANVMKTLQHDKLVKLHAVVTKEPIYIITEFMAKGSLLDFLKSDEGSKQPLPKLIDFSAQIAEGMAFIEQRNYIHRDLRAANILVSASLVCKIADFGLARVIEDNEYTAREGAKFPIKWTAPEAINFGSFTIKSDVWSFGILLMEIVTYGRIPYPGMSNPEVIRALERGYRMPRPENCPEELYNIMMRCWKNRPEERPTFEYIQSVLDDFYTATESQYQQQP

## COc1ccc(Nc2ncnc(-c3cccnc3Nc3cc(NC(=O)c4ccc(CN5CCN(C)CC5)cc4)ccc3C)n2)cc1 [DSA8]
Src F278H
  IC50: 7 ± 2 nM
Src F382V
  IC50: 4.4 ± 1.7 nM
Src T338I
  IC50: 18 ± 6 nM
Hck
  IC50: 6.6 ± 2.3 nM
Parental Ba/F3 cells
  Growth of parental Ba/F3 control cells: minimally affected
Src E280V
  IC50: 4 ± 1.2 nM
[1]
  BCR-ABL-induced phosphorylation of CrkL: block
